What was measured:
Dipeptidyl peptidase 9 = Dipeptidyl peptidase 9 (Homo sapiens, UniProt Q86TI2); test: Inhibition of DPP9 (unknown origin)
Dipeptidyl peptidase 8 = Dipeptidyl peptidase 8 (Homo sapiens, UniProt Q6V1X1); test: Inhibition of DPP8 (unknown origin)
Dipeptidyl peptidase 4 = Dipeptidyl peptidase 4 (Homo sapiens, UniProt P27487); test: Inhibition of DPP4 in human Caco-2 cells using AP-AFC as substrate preincubated with enzyme for 10 mins followed by substrate addition and measured after 10 mins by fluorescence based analysis; type: cell-based
Chain of Dipeptidyl peptidase 4 (P27487 whole entry): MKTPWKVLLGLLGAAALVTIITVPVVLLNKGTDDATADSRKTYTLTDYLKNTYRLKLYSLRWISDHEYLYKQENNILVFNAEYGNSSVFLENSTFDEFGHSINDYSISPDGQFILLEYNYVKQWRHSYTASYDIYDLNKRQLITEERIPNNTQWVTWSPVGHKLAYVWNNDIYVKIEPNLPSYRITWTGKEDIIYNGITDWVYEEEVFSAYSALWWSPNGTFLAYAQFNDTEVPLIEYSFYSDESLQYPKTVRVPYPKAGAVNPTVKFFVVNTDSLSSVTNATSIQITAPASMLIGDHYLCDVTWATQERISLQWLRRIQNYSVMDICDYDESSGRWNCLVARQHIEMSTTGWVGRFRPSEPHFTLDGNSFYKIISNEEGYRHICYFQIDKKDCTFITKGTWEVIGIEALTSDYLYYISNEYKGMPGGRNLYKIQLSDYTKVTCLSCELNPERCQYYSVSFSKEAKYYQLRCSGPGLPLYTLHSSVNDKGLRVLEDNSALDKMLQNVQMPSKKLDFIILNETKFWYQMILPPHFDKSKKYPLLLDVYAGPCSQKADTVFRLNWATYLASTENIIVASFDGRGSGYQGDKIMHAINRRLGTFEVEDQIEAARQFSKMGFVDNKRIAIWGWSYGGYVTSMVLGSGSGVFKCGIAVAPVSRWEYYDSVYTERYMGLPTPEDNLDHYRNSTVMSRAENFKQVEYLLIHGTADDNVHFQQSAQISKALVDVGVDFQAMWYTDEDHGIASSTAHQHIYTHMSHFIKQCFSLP

Chain of Dipeptidyl peptidase 8 (Q6V1X1 whole entry): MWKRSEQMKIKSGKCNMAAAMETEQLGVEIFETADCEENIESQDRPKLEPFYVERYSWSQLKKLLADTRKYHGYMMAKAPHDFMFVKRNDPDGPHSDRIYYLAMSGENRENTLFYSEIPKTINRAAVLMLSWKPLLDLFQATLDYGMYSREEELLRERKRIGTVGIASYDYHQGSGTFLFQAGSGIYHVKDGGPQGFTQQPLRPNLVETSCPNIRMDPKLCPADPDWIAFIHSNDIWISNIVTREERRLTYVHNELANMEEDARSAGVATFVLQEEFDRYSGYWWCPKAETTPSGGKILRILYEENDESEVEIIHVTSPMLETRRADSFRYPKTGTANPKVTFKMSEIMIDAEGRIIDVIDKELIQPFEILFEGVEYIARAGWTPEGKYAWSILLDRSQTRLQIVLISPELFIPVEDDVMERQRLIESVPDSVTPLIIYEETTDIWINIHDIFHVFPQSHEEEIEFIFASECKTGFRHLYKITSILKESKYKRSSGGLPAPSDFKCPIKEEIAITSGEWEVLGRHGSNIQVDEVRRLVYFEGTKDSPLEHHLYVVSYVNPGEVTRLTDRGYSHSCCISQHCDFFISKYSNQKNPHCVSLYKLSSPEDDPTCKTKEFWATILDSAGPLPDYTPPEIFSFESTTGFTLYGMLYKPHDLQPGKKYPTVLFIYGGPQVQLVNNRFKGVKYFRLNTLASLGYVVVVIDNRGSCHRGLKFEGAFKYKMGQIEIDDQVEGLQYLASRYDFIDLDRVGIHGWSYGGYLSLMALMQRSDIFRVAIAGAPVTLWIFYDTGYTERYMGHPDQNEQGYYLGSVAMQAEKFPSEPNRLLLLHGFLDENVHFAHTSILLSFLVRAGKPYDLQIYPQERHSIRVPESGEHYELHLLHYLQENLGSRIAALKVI
Chain of Dipeptidyl peptidase 9 (Q86TI2 whole entry): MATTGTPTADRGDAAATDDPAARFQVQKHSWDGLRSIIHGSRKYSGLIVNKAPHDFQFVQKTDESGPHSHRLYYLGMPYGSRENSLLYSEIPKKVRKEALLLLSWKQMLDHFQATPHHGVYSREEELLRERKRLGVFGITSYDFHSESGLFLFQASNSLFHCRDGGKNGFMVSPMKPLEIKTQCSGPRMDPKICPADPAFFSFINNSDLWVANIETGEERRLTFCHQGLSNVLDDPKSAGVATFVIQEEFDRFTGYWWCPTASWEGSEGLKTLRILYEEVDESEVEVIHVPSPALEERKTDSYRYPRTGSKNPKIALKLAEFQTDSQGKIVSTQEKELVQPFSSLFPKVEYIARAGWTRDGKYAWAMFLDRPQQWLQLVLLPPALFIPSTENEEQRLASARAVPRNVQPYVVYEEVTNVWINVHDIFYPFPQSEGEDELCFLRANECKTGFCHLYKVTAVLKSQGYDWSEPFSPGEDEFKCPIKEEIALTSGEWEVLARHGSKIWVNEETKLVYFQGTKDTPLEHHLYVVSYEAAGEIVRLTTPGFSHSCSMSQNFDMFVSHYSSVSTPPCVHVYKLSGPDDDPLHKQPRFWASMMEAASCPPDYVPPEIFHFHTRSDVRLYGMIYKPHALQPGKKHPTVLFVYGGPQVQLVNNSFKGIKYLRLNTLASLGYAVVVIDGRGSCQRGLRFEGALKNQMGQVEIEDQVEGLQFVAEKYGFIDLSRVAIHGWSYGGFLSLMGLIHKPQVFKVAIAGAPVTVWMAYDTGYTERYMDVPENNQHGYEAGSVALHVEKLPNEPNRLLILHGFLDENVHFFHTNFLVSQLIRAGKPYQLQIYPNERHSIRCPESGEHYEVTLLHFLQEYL

SMILES	IC50 (Dipeptidyl peptidase 9)	IC50 (Dipeptidyl peptidase 8)	IC50 (Dipeptidyl peptidase 4)
O=[N+]([O-])c1ccccc1Nc1cc(N2CCNCC2)nc2ccnn12	> 100 µM	> 100 µM	–
Cc1ccnc(Nc2cc(N3CCNCC3)nc3ccnn23)c1	> 100 µM	> 100 µM	–
N[C@@H]1CCCN(c2cc(Nc3ccccc3Cl)n3nccc3n2)C1	> 100 µM	> 100 µM	–
Fc1ccc(Nc2cc(N3CCNCC3)nc3ccnn23)c(F)c1	> 100 µM	> 100 µM	–
c1cc2nc(N3CCOCC3)cc(Nc3cc[nH]n3)n2n1	–	–	> 100 µM
Cc1ccc(Nc2cc(N3CCC[C@@H](N)C3)nc3ccnn23)c(N)c1	> 100 µM	> 100 µM	–
N[C@@H]1CCCN(c2cc(Nc3cc(Cl)ccn3)n3nccc3n2)C1	> 50 µM	> 50 µM	–
CN(c1ccccc1)c1cc(N2CCC[C@@H](N)C2)nc2ccnn12	–	–	> 100 µM
CC(C)(C)Nc1cc(NC(C)(C)C)n2nccc2n1	–	–	> 100 µM
N[C@@H]1CCCN(c2cc(NCCc3ccc(Cl)cc3Cl)n3nccc3n2)C1	> 100 µM	> 100 µM	–

From ChEMBL document CHEMBL4706598 (Eur J Med Chem, 2020)
